In US20260257992A1, “AGONISTS OF SMALL HETERODIMER PARTNER FOR CANCER THERAPY” (THE BOARD OF TRUSTEES OF THE UNIVERSITY OF ILLINOIS, priority 2023, published 2026):

Legend:
Type in all cases: cell-based, mouse
[1] = tested on: BMDM viability; assay: Resazurin cell viability assay in BMDMs; settings: increasing doses up to 100 μM
Protocol: (§1) In order to better assess the potential cellular toxicity of DSHN-OMe, we treated BMDMs with increasing doses and measured their ability to reduce resazurin to resorufin (similar to the MTT viability assay).
Resazurin cell viability assay. 20,000 cells were seeded into 96 well f-bottom, black plates (Corning Costar) and cell viability was measured using 100 μL resazurin per well at 0.3 mg/mL (Acros Organics). The fluorescence signal was quantified by plate reader (560 nm excitation/590 nm emission) at 2-3 h.

[2] = tested on: CD8+ T cell expansion; assay: Suppressiveness of T cells expanded with treated BMDMs (secondary CD8+ expansion); settings: BMDMs pretreated with compound
Source text: FIG. 6A-6F. […] (A) DSHN-OMe has minimal effects on BMDM viability (N=4-6/group). (B) DSHN-OMe treated BMDMs reduce Treg expansion in a dose related manner, with an increased biological maximum compared to DSHN (data normalized to mean vehicle, which was set at 100%. Non-linear three parameter regression shown, N=4/point). […] Different letters denote P<0.05. […] The percentage of divided CD8+ T cells in the second round was quantified. (N=3-5/group, different letters indicating statistical significance, 1-way ANOVA followed by Tukey). […] Vehicle (DMSO) treated BMDMs are indicated on the right for comparison. (F) Cellular uptake of DSHN-OMe greatly exceeds that of DSHN though time. RAW264.7 cells were treated with 50 µM of vehicle (DMSO) or indicated compound for 4 h, 8 h or 24 h. Compound was washed off, cells were lysed and resulting DSHN and DSHN-OMe contents were assessed by LC-MS/MS. Note different scales on y-axes. For DSHN treated cells, no DSHN-OMe was detected (not shown). For DSHN-OMe treated cells, some DSHN was detected. ND signifies when compounds were not detected. (N=3/group. 4 h timepoint was run in an experiment independent of the 8 and 24 hr timepoints).
as §1

[3] = tested on: Treg expansion; assay: Treg expansion in co-culture with compound-treated BMDMs (macrophages); set-up: key to Treg expansion macrophages: ✓: using strict cutoffs with respect to DSHN for passing each metric; X: using strict cutoffs with respect to DSHN for passing each metric; settings: for Treg expansion after BMDM pretreatment and washout: BMDMs pretreated, washed before co-culture with T cells; for Treg expansion, co-culture with treated BMDMs: dose response
Protocol: Preparation of Bone Marrow-Derived Macrophages (BMDMs) and Dendritic Cells. Bone marrow cells were collected from mouse tibia and femur. Cells were passed through 70-micron cell strainer and subsequently cultured 10 mL complete RPMI media supplemented with 20 ng/mL of recombinant murine M-CSF (576406; BioLegend, 315-02 PeproTech). On day 3, additional 5 ml of the complete media was added. On day 7, media was replaced. BMDMs were harvested on day 10 using cell stripper solution for further experiments. Dendritic cells were isolated from the spleens of wildtype, using mouse CD11c UltraPure MicroBeads (130-125-835; Miltenyi Biotec) according to the manufacturer's instructions) and cultured in RPMI medium supplemented with 10% heat-inactivated charcoal-stripped FBS, 50 μM β-mercaptoethanol, 1% sodium pyruvate, 1% nonessential amino acids, % penicillin/streptomycin, and 1% Glutamax.
In vitro Treg expansion assays. T cells were cultured in RPMI medium supplemented with 10% heat-inactivated charcoal-stripped FBS, 50 μM β-mercaptoethanol (Gibco), 1% sodium pyruvate, 1% nonessential amino acids, % penicillin/streptomycin, and 1% Glutamax (Gibco). Naïve CD4^+ T cells were isolated from the spleens of wildtype and OT-II, using Naive CD4^+ T Cell Isolation Kit (Miltenyi Biotec according to the manufacturer's instructions). T cells were labeled with the vital dye CFSE (BioLegend) or Cell Trace Violet (ThermoFisher) according to the manufacturer's instructions. For wildtype Treg expansion in presence of antigen presenting cells, naïve CD4^+ T cells were co-cultured with APC at indicated ratio in the presence of 0.5 μg/mL (anti-CD3 BioLegend), 0.5 ng/mL TGFβ (BioLegend) and 0.5 ng/ml IL-2 (BioLegend) for 72 hr at 37° C. For OT-II Treg expansion, OTII naïve CD4^+ T cells from OT-II mice were activated by antigen presentation by culturing BMDMs were primed with 10 μg/mL OVA323-339 (Bachem) and 0.5 μg/mL LPS (Sigma). naïve CD4+ T cells from OTII mice were co-cultured with primed APC at indicated ratio for 72 hrs. After 72 hrs of culture, cells were transferred into V-bottom plates (BD), pelleted by centrifugation and incubated with antibody staining mix containing Ghost Dye™ Red 780 viability dye diluted in PBS for 15 minutes at 4° C. Cell surface antigens were stained for 15 minutes at 4° C. with an antibody staining mix containing Ghost Dye™ Red 780 viability dye diluted in PBS. Cells were fixed and permeabilized with BD Cytofix/Cytoperm™ for 20 minutes at 4° C. Antibodies against intracellular antigens were diluted in 1×BD Perm/Wash™ buffer and cells were stained for 30 minutes at 4° C. Cytometry data were acquired on a LSRII, Fortessa, Symphony A1 (Becton Dickinson, NJ). Foxp3 induction was assessed by expression of FOXP3.

SMILES | BMDM viability (resazurin reduction) [1] | Suppressiveness of expanded T cells towards second set of naïve T cells (CD8+ expansion) [2] | Treg expansion after BMDM pretreatment and washout [3] | Treg expansion, co-culture with treated BMDMs [3] | Treg expansion macrophages ([3]; pass/fail with respect to DSHN)
CCN(CC)S(=O)(=O)c1cccc2cc(C(=O)O)c(O)cc12 [DSHN, reference compound] | no significant difference was observed in viability up to 100 μM | less suppressive | not effective at reducing Treg expansion | reduced subsequent Treg expansion in a dose related manner | 
CCN(CC)S(=O)(=O)c1cccc2cc(C(=O)OC)c(O)cc12 [DSHN-OMe, Methyl 5-(N,N-diethylsulfamoyl)-3-hydroxy-2-naphthoate] | no significant difference was observed in viability up to 100 μM | less suppressive | decreased Treg expansion | elicited a reduction in Treg expansion with a lower dose, and had a larger biological maximum | ✓
